Values after ≈ are worked out from the molar mass of the structure shown.
What was measured:
Homo sapiens [1] = organism: Homo sapiens; test: Selectivity ratio of IC50 for human MMP-13 to IC50 for human MMP-12
Homo sapiens [2] = organism: Homo sapiens; test: Selectivity ratio of IC50 for human MMP-8 to IC50 for human MMP-12
[3] = target: Macrophage metalloelastase (Homo sapiens, UniProt P39900); test: Inhibition of human MMP-12
[4] = target: Matrix metalloproteinase-9 (Homo sapiens, UniProt P14780); test: Inhibition of human MMP-9
Chain of Matrix metalloproteinase-9 (P14780 whole entry): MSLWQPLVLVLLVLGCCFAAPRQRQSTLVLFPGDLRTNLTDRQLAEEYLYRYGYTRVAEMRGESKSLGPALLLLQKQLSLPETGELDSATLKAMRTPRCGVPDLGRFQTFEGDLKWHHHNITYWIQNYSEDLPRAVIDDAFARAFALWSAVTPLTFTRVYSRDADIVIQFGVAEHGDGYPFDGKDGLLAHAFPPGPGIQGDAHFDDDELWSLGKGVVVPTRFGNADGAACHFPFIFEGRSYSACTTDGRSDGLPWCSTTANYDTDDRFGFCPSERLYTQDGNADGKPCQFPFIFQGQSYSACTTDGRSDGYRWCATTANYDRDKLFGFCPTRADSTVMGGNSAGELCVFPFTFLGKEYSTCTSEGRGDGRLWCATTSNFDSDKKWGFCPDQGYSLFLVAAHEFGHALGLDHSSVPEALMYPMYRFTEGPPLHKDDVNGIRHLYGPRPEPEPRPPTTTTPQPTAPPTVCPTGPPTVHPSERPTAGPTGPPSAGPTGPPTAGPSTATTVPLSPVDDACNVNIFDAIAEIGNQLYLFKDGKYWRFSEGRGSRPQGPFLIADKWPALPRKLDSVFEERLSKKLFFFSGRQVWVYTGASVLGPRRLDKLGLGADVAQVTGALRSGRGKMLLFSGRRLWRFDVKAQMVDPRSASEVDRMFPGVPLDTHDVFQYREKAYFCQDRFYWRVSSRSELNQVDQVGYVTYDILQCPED

Collagenase 3 = Collagenase 3 (Homo sapiens, UniProt P45452); test: Inhibition of human MMP-13
Mus musculus [5] = test: Inhibition of human recombinant MMP12-mediated ear swelling in C57BL/6 mouse at 30 mg/kg, po bid administered 12 hrs and 2 hrs prior to challenge measured after 2 hrs relative to vehicle treated control; format: functional
Mus musculus [6] = test: Inhibition of human recombinant MMP12-mediated ear swelling in C57BL/6 mouse at 10 mg/kg, po bid administered 12 hrs and 2 hrs prior to challenge measured after 2 hrs relative to vehicle treated control; format: functional
Neutrophil collagenase = Neutrophil collagenase (Homo sapiens, UniProt P22894); test: Inhibition of human MMP-8
Chain of Neutrophil collagenase (P22894 whole entry): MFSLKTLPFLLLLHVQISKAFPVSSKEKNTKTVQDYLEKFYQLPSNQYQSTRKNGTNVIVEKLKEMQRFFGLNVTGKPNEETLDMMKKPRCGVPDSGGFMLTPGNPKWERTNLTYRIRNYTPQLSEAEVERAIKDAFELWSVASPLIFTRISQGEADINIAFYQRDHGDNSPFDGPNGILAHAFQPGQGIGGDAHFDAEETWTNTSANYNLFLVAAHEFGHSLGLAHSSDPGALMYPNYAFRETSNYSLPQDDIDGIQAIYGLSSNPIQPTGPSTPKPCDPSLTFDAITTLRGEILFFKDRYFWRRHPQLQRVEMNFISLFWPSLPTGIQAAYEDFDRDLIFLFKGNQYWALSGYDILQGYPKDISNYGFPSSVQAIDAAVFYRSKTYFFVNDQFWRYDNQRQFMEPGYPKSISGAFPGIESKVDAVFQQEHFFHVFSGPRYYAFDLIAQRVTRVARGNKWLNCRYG

Mus musculus [7] = test: Inhibition of human recombinant MMP12-induced lung inflammation in C57BL/6 mouse assessed as reduction in bronchoalveolar lavage inflammation at 5 mg/kg, po bid at 2 hrs prior to and 12 hrs post challenge measured 24 hrs after last challenge relative to vehicle treated control; format: functional; conditions: C57BL/6, Lung
[8] = Inhibition of monkey MMP-12; set-up: species or system Macaca mulatta
[9] = target: Voltage-gated inwardly rectifying potassium channel KCNH2 (Homo sapiens, UniProt Q12809); test: Inhibition of human ERG
Chain of Voltage-gated inwardly rectifying potassium channel KCNH2 (Q12809 whole entry): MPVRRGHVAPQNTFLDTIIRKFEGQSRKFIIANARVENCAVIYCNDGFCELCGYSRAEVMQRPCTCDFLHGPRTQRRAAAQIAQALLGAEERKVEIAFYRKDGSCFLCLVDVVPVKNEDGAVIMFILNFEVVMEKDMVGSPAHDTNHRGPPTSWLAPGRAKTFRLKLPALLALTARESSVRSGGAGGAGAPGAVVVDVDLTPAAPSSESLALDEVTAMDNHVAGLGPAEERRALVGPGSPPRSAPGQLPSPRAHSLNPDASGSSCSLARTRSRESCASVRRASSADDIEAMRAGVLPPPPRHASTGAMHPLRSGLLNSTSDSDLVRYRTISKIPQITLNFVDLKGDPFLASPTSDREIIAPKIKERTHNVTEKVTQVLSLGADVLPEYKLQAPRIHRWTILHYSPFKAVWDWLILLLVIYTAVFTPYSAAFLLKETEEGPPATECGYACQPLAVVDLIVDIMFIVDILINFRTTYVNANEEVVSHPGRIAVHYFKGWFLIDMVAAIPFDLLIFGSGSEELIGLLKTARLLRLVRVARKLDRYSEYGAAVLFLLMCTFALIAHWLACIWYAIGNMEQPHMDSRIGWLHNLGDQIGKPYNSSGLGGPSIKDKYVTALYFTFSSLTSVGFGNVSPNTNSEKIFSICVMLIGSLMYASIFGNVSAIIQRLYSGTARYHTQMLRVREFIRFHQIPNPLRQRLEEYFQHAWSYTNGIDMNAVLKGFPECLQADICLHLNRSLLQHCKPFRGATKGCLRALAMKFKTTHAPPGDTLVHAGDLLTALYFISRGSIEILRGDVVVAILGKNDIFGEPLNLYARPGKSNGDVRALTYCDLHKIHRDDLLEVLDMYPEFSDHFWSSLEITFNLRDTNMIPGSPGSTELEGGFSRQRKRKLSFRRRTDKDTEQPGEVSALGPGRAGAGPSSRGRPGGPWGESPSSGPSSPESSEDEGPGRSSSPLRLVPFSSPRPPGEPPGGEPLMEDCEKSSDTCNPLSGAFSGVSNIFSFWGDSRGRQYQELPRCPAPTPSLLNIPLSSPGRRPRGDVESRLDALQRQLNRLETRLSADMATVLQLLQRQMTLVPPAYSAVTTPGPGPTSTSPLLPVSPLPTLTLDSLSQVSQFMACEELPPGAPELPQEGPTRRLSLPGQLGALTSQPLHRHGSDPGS

[10] = target: 72 kDa type IV collagenase (Homo sapiens, UniProt P08253); test: Inhibition of human MMP-2
Chain of 72 kDa type IV collagenase (P08253 whole entry): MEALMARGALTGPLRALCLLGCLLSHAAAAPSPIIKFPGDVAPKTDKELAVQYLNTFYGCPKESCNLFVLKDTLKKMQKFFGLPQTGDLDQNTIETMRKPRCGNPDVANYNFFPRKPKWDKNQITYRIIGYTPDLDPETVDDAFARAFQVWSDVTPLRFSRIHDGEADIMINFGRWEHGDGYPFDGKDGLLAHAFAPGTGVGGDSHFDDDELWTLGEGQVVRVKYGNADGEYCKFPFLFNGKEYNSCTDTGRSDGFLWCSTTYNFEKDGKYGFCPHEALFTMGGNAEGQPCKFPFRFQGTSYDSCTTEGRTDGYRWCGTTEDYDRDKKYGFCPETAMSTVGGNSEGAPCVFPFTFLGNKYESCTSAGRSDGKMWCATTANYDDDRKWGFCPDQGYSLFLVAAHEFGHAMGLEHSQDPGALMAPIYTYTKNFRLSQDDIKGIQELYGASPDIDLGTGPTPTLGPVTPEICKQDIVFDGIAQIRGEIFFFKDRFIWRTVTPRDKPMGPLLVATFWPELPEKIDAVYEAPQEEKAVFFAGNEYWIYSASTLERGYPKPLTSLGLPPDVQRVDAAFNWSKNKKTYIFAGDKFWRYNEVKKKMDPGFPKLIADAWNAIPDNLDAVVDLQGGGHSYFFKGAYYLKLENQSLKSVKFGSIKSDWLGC

[11] = Cmax in C57BL/6 mouse at 10 mg/kg, po; format: ADME, organism-based; set-up: dose 10 mg/kg, route oral; conditions: in vivo
[12] = Inhibition of sheep MMP-12; set-up: species or system Ovis aries
Mus musculus [13] = test: Inhibition of human recombinant MMP12-mediated ear swelling in C57BL/6 mouse at 3 mg/kg, po bid administered 12 hrs and 2 hrs prior to challenge measured after 2 hrs relative to vehicle treated control; format: functional
[14] = Half life in C57BL/6 mouse at 10 mg/kg, po; format: ADME, organism-based; set-up: dose 10 mg/kg, route oral; conditions: in vivo
[15] = target: Macrophage metalloelastase (Mus musculus, UniProt P34960); test: Inhibition of mouse MMP-12
Chain of Macrophage metalloelastase (Mus musculus, UniProt P34960) (P34960 whole entry): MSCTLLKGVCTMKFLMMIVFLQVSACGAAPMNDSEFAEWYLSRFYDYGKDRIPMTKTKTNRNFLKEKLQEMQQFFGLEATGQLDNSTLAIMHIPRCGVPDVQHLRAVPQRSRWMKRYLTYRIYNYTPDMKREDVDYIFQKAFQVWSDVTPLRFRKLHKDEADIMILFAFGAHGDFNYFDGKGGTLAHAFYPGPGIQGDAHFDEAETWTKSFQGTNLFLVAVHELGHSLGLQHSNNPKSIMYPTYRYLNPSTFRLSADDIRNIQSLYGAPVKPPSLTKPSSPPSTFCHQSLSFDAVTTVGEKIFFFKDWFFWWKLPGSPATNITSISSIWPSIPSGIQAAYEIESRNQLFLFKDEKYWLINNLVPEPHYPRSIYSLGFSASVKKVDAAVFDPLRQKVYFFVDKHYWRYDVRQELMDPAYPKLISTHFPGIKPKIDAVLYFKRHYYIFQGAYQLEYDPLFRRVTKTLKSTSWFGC

Salmonella typhimurium = test: Mutagenicity in Salmonella Typhimurium by AMES test; format: toxicity, organism-based; conditions: salmonella enterica subsp. enterica serovar typhimurium
Matrilysin = target: T1, Matrilysin (Homo sapiens, UniProt P09237); test: Inhibition of human MMP-7
T1 sequence (P09237 whole entry): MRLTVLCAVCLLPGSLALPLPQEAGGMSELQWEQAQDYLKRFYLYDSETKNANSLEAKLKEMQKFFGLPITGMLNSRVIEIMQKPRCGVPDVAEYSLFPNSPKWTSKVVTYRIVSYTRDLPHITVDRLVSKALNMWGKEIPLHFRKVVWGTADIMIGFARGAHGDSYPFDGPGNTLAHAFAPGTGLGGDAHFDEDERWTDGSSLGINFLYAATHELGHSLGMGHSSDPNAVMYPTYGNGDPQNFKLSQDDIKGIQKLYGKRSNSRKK

Mus musculus [16] = test: Inhibition of human recombinant MMP12-induced lung inflammation in po dosed C57BL/6 mouse assessed as minimum effective dose for reduction in Bronchoalveolar Lavage inflammation administered bid at 2 hrs prior to and 12 hrs post challenge measured 24 hrs after last challenge; format: functional; conditions: C57BL/6, po, read-out: MED
[17] = target: Matrix metalloproteinase-12 (Canis lupus familiaris, UniProt A9X4R8); test: Inhibition of dog MMP-12
Chain of Matrix metalloproteinase-12 (A9X4R8 whole entry): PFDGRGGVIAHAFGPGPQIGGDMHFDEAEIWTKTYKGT

[18] = Clearance in C57BL/6 mouse at 2 mg/kg, iv; format: ADME, organism-based; set-up: dose 2 mg/kg, route intravenous; conditions: in vivo
[19] = Aqueous solubility of the compound at pH 7.4; format: physicochemical; conditions: buffer
[20] = Oral bioavailability in C57BL/6 mouse at 10 mg/kg; format: ADME, organism-based; conditions: in vivo
Stromelysin-1 = Stromelysin-1 (Homo sapiens, UniProt P08254); test: Inhibition of human MMP-3
Chain of Stromelysin-1 (P08254 whole entry): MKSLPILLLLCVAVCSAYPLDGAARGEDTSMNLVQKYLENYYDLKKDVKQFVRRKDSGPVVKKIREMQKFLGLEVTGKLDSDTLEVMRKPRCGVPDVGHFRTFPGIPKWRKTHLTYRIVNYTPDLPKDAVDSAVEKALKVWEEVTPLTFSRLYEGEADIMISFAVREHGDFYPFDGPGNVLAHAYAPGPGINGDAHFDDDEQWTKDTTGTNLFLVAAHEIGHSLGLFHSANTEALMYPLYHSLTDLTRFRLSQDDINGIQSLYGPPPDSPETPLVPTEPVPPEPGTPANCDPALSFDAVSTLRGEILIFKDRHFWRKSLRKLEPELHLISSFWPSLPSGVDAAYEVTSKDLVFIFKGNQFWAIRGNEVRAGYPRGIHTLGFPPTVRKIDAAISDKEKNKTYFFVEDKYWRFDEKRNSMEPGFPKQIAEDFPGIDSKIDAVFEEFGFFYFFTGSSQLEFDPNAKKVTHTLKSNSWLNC

[21] = target: Macrophage metalloelastase (Oryctolagus cuniculus, UniProt P79227); test: Inhibition of rabbit MMP-12
Chain of Macrophage metalloelastase (Oryctolagus cuniculus, UniProt P79227) (P79227 whole entry): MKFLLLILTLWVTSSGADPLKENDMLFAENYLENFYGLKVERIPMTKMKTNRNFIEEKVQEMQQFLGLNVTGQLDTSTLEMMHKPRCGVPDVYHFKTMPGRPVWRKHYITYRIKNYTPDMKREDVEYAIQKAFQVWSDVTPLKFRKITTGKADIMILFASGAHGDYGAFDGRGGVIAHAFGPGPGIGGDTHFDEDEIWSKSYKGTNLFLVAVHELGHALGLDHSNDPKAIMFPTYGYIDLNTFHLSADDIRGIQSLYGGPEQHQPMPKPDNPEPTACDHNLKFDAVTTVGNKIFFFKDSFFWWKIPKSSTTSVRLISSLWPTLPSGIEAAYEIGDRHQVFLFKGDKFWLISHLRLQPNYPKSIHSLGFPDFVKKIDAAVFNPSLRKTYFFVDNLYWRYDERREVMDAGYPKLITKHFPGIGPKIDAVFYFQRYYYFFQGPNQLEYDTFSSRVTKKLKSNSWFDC

Mus musculus [22] = test: Inhibition of human recombinant MMP12-induced lung inflammation in C57BL/6 mouse assessed as reduction in bronchoalveolar lavage inflammation at 10 mg/kg, po bid administered at 2 hrs prior to and 12 hrs post challenge measured 24 hrs after last challenge relative to vehicle treated control; format: functional; conditions: C57BL/6, Lung
[23] = Volume of distribution at steady state in C57BL/6 mouse at 2 mg/kg, iv; format: ADME, organism-based; set-up: dose 2 mg/kg, route intravenous; conditions: in vivo, read-out: Vdss
[24] = AUC in C57BL/6 mouse at 10 mg/kg, po; format: ADME, organism-based; set-up: dose 10 mg/kg, route oral; conditions: plasma

Chain of Macrophage metalloelastase (Homo sapiens, UniProt P39900) (P39900 whole entry): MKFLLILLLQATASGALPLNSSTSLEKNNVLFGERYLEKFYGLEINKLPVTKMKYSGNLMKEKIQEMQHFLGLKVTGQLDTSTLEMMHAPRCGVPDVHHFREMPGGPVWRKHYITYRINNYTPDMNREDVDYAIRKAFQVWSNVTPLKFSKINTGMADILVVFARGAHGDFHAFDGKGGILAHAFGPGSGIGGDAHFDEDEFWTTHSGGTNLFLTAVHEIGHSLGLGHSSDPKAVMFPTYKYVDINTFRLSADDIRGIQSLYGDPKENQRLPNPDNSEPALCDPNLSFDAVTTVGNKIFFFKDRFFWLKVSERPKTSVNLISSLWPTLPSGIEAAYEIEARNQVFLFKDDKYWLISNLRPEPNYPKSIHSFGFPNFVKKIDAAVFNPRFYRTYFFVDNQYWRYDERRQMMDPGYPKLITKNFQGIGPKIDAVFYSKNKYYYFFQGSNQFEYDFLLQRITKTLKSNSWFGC

For CC(C)[C@H](NS(=O)(=O)c1ccc2c(c1)oc1ccc(-n3ccc(C(F)(F)F)n3)cc12)C(=O)O, the Ratio IC50 (Homo sapiens [1]) was 349 and the Ratio IC50 (Homo sapiens [2]) was 44.

Work on CC(C)[C@H](NS(=O)(=O)c1ccc2c(c1)oc1ccc(-c3noc(C4CCOC4)n3)cc12)C(=O)O (some centres undefined) yielded a Ratio IC50 (Homo sapiens [2]) of 100.

With CC(C)[C@H](NS(=O)(=O)c1ccc2c(c1)oc1ccc(-c3cc[nH]n3)cc12)C(=O)O the Ratio IC50 (Homo sapiens [1]) was > 1130, the Ratio IC50 (Homo sapiens [2]) was > 2500 and the IC50 [3] was < 1 nM.

Work on CC(C)[C@H](NS(=O)(=O)c1ccc2c(c1)oc1ccc(-c3cccs3)cc12)C(=O)O yielded a Ratio IC50 (Homo sapiens [1]) of 1690 and a Ratio IC50 (Homo sapiens [2]) of 100.

Work on CC(C)[C@H](NS(=O)(=O)c1ccc2c(c1)oc1ccc(-c3noc(C(F)(F)F)n3)cc12)C(=O)O yielded a Ratio IC50 (Homo sapiens [2]) of 45.

With CC(C)[C@H](NS(=O)(=O)c1ccc2c(c1)oc1ccc(-n3cncn3)cc12)C(=O)O the Ratio IC50 (Homo sapiens [1]) was 34 and the Ratio IC50 (Homo sapiens [2]) was 4.

With CC(C)[C@H](NS(=O)(=O)c1ccc2c(c1)oc1ccc(-c3noc(C4CCC4)n3)cc12)C(=O)O the Ratio IC50 (Homo sapiens [2]) was 44.

Molecule Cc1ccc(-c2ccc3oc4cc(S(=O)(=O)N[C@H](C(=O)O)C(C)C)ccc4c3c2)s1 has a Ratio IC50 (Homo sapiens [1]) of 1200 and a Ratio IC50 (Homo sapiens [2]) of 125.

Work on CC(C)[C@H](NS(=O)(=O)c1ccc2c(c1)oc1ccc(-c3noc(-c4ccccc4)n3)cc12)C(=O)O yielded a Ratio IC50 (Homo sapiens [2]) of 60.

Work on CC(C)[C@H](NS(=O)(=O)c1ccc2c(c1)oc1ccc(N3CCOCC3)cc12)C(=O)O yielded a Ratio IC50 (Homo sapiens [1]) of 154 and a Ratio IC50 (Homo sapiens [2]) of 3.

CC(C)c1nc(-c2ccc3oc4cc(S(=O)(=O)N[C@H](C(=O)O)C(C)C)ccc4c3c2)no1 gave a Ratio IC50 (Homo sapiens [2]) of 19.

Molecule COC(=O)Nc1ccc2oc3cc(S(=O)(=O)N[C@H](C(=O)O)C(C)C)ccc3c2c1 has a Ratio IC50 (Homo sapiens [1]) of 60.

With CCc1nc(-c2ccc3oc4cc(S(=O)(=O)N[C@H](C(=O)O)C(C)C)ccc4c3c2)no1 the Ratio IC50 (Homo sapiens [2]) was 1.4.

Molecule CC(C)[C@H](NS(=O)(=O)c1ccc2c(c1)oc1ccc(-c3ccc[nH]3)cc12)C(=O)O has a Ratio IC50 (Homo sapiens [1]) of 525 and a Ratio IC50 (Homo sapiens [2]) of 143.

Work on CC(C)[C@H](NS(=O)(=O)c1ccc2c(c1)oc1ccc(-c3ccc(Cl)o3)cc12)C(=O)O yielded a Ratio IC50 (Homo sapiens [1]) of 1440 and a Ratio IC50 (Homo sapiens [2]) of 70.

For CC(C)[C@H](NS(=O)(=O)c1ccc2c(c1)oc1ccc(-c3noc(C4CC4)n3)cc12)C(=O)O, the Ratio IC50 (Homo sapiens [2]) was 56.

With CC(C)[C@H](NS(=O)(=O)c1ccc2c(c1)oc1ccc(N3CCN(C)CC3)cc12)C(=O)O the Ratio IC50 (Homo sapiens [1]) was 38 and the Ratio IC50 (Homo sapiens [2]) was 0.5.

Work on Cc1cnc(-c2ccc3oc4cc(S(=O)(=O)N[C@H](C(=O)O)C(C)C)ccc4c3c2)s1 yielded a Ratio IC50 (Homo sapiens [1]) of 460 and a Ratio IC50 (Homo sapiens [2]) of 158.

In the case of CC(C)[C@H](NS(=O)(=O)c1ccc2c(c1)oc1ccc(N3CCNCC3)cc12)C(=O)O, the Ratio IC50 (Homo sapiens [1]) is reported as 34 and the Ratio IC50 (Homo sapiens [2]) is reported as 2.

For CC(C)[C@H](NS(=O)(=O)c1ccc2c(c1)oc1ccc(-c3ccoc3)cc12)C(=O)O, the Ratio IC50 (Homo sapiens [1]) was 900 and the Ratio IC50 (Homo sapiens [2]) was 33.

In the case of CC(C)[C@H](NS(=O)(=O)c1ccc2c(c1)oc1ccc(-c3nccs3)cc12)C(=O)O, the IC50 [4] is reported as 1970 nM, the IC50 (Collagenase 3) is reported as 1980 nM and the inhibition in vivo at 30 mg/kg (Mus musculus [5]) is reported as 65.2%. The inhibition in vivo at 10 mg/kg (Mus musculus [6]) was 38.6%, the Ratio IC50 (Homo sapiens [1]) was 1980 and the IC50 (Neutrophil collagenase) was 154 nM. The inhibition in vivo at 5 mg/kg (Mus musculus [7]) was > 50%, the IC50 [8] was 244 nM and the “inhibition (INH)” value [9] was “Not Active”. The IC50 [10] was 501 nM, the Cmax [11] was 5550 ng/mL and the IC50 [12] was 5.4 nM. The inhibition in vivo at 3 mg/kg (Mus musculus [13]) was 24.9%, the half-life [14] was 2.9 h and the IC50 [15] was 85 nM. For the same molecule, the Activity (Salmonella typhimurium) was “Non-toxic”, the IC50 (Matrilysin) was 57700 nM and the minimal effective dose (Mus musculus [16]) was 5 mg/kg. It also gave an IC50 [17] of 70 nM, a clearance [18] of 5 mL/min/kg and a solubility [19] of 550 µg/mL (≈ 1280 µM). The bioavailability [20] was 63%, the Ratio IC50 (Homo sapiens [2]) was 154 and the IC50 (Stromelysin-1) was 2530 nM. The IC50 [21] was 57 nM, the inhibition in vivo at 10 mg/kg (Mus musculus [22]) was > 50% and the Vd [23] was 0.8 L/kg. The AUC [24] was 20300 ng·h/mL.

CC(C)[C@H](NS(=O)(=O)c1ccc2c(c1)oc1ccc(-n3cccn3)cc12)C(=O)O showed a Ratio IC50 (Homo sapiens [1]) of 37 and a Ratio IC50 (Homo sapiens [2]) of 15.

For COCc1nc(-c2ccc3oc4cc(S(=O)(=O)N[C@H](C(=O)O)C(C)C)ccc4c3c2)no1, the Ratio IC50 (Homo sapiens [2]) was 10.

Reference: ChEMBL document CHEMBL1933042, “Discovery of potent and selective matrix metalloprotease 12 inhibitors for the potential treatment of chronic obstructive pulmonary disease (COPD)” (Bioorg Med Chem Lett, 2012)
